Experimental data published in article PMC13070491, “Single-nucleus transcriptomics, pharmacokinetics, and pharmacodynamics of CDK4/6 and mTOR inhibition in a Phase 0/1 trial of recurrent high-grade glioma” (Neuro-Oncology, 2025).
Several values for one entry are separate records, joined by “and”; a condition that tells them apart may be missing. Equal entries are not always repeated.

Test: CNS penetration: total and unbound drug concentrations in tumor regions, CSF and plasma (LC-MS/MS, equilibrium dialysis);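 further: drug levels in patient tumor tissue from contrast-enhancing and non-enhancing regions sampled under MRI-guided neuronavigation, with plasma and CSF drawn during surgical resection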
Details: for concentration at 5 days / Kp at 120 h / Kp: human, oral
[1] = Level 6: Ribociclib 600mg QD + Everolimus 70mg once on Day 5, sampling 7-9 Hours, per patient

Structure (SMILES): CO[C@H]1C[C@@H]2CC[C@@H](C)[C@@](O)(O2)C(=O)C(=O)N2CCCC[C@H]2C(=O)O[C@H]([C@H](C)C[C@@H]2CC[C@@H](OCCO)[C@H](OC)C2)CC(=O)[C@H](C)/C=C(\C)[C@@H](O)[C@@H](OC)C(=O)[C@H](C)C[C@H](C)/C=C/C=C/C=C/1C [Everolimus, everolimus]
- Everolimus.Unbound.plasma (Level 5: Ribociclib 600mg QD + Everolimus 60mg once on Day 5, sampling 7-9 Hours, per patient): 4.09E-04 and 6.26E-04 and 4.66E-04
- Everolimus.CSF [1]: 1.14E-02 and BLQ and 1.29E-03
- Everolimus.Enhancing.tumor [1]: 7.18E-02 and 9.00E-02 and 3.12E-02
- Everolimus.Non-enhancing.tumor [1]: 7.82E-02 and 8.24E-03 and 6.80E-03
- Everolimus.Plasma.conc [1]: 0.0531 and 0.05464 and 0.09057
- Everolimus.Unbound.enhancing [1]: BLQ
- Everolimus.Unbound.non-enhancing [1]: BLQ
- Everolimus.Unbound.plasma [1]: 3.00E-04 and 2.82E-04 and 4.90E-04
- Kp total drug tumor-to-plasma partition ratio, Enhancing tumor, MAX (everolimus 2.5 mg QD 5 days): 2.738
- Kp total drug tumor-to-plasma partition ratio, Enhancing tumor, MIN (everolimus 2.5 mg QD 5 days): BLQ
- Kp total drug tumor-to-plasma partition ratio, Non-enhancing tumor, MAX (everolimus 2.5 mg QD 5 days): 1.02
- Kp total drug tumor-to-plasma partition ratio, Non-enhancing tumor, MIN (everolimus 2.5 mg QD 5 days): BLQ
- Kp total drug tumor-to-plasma partition ratio, Enhancing tumor, MAX (everolimus 5 mg QD 5 days): 1.77
- Kp total drug tumor-to-plasma partition ratio, Enhancing tumor, MIN (everolimus 5 mg QD 5 days): 0.59
- Kp total drug tumor-to-plasma partition ratio, Non-enhancing tumor, MAX (everolimus 5 mg QD 5 days): 1.09
- Kp total drug tumor-to-plasma partition ratio, Non-enhancing tumor, MIN (everolimus 5 mg QD 5 days): 0.37
- Kp total drug tumor-to-plasma partition ratio, Enhancing tumor, MAX (everolimus 10 mg QD 5 days): 1.97
- Kp total drug tumor-to-plasma partition ratio, Enhancing tumor, MIN (everolimus 10 mg QD 5 days): BLQ
- Kp total drug tumor-to-plasma partition ratio, Non-enhancing tumor, MAX (everolimus 10 mg QD 5 days): 1.07
- Kp total drug tumor-to-plasma partition ratio, Non-enhancing tumor, MIN (everolimus 10 mg QD 5 days): 0.07
- Kp total drug tumor-to-plasma partition ratio, Enhancing tumor, MAX (everolimus 50 mg single dose): 1.18
- Kp total drug tumor-to-plasma partition ratio, Enhancing tumor, MIN (everolimus 50 mg single dose): 0.65
- Kp total drug tumor-to-plasma partition ratio, Non-enhancing tumor, MAX (everolimus 50 mg single dose): 0.32
- Kp total drug tumor-to-plasma partition ratio, Non-enhancing tumor, MIN (everolimus 50 mg single dose): BLQ
- Kp total drug tumor-to-plasma partition ratio, Enhancing tumor, MAX (everolimus 60 mg single dose): 1.24
- Kp total drug tumor-to-plasma partition ratio, Enhancing tumor, MIN (everolimus 60 mg single dose): 0.145
- Kp total drug tumor-to-plasma partition ratio, Non-enhancing tumor, MAX (everolimus 60 mg single dose): 0.51
- Kp total drug tumor-to-plasma partition ratio, Enhancing tumor, MAX (everolimus 70 mg single dose): 1.64
- Kp total drug tumor-to-plasma partition ratio, Enhancing tumor, MIN (everolimus 70 mg single dose): 0.34
- Kp total drug tumor-to-plasma partition ratio, Non-enhancing tumor, MAX (everolimus 70 mg single dose): 1.47
- Kp total drug tumor-to-plasma partition ratio, Non-enhancing tumor, MIN (everolimus 70 mg single dose): 0.075
- concentration at 5 days (CSF, Total everolimus, MAX, 10 mg QD 5 days): 2.5 nM
- concentration at 5 days (CSF, Total everolimus, MAX, 50 mg single dose): 1.5 nM
- concentration at 5 days (CSF, Total everolimus, MED, 2.5 mg QD 5 days): 0.33 nM
- concentration at 5 days (CSF, Total everolimus, MED, 50 mg single dose): 0.935 nM
- concentration at 5 days (CSF, median everolimus CSF concentration, across the different dose levels): 0.48 nM
- Kp at 120 h (enhancing tumor and plasma, 2.5 mg): 0.62
- Kp at 120 h (enhancing tumor and plasma, 5 mg): 1.32
- Kp at 120 h (enhancing tumor and plasma, 10 mg): 1.2
- Kp (enhancing tumor and plasma, 50 mg): 0.89
- Kp (enhancing tumor and plasma, 60 mg): 0.33
- Kp (enhancing tumor and plasma, 70 mg): 1.35
- concentration at 5 days (enhancing tumor, Total everolimus, MAX, 2.5 mg QD 5 days): 83.4 nM
- concentration at 5 days (enhancing tumor, Total everolimus, MAX, 5 mg QD 5 days): 39.8 nM
- concentration at 5 days (enhancing tumor, Total everolimus, MAX, 10 mg QD 5 days): 61.3 nM
- concentration at 5 days (enhancing tumor, Total everolimus, MAX, 50 mg single dose): 74.1 nM
- concentration at 5 days (enhancing tumor, Total everolimus, MAX, 60 mg single dose): 87.6 nM
- concentration at 5 days (enhancing tumor, Total everolimus, MAX, 70 mg single dose): 90 nM
- concentration at 5 days (enhancing tumor, Total everolimus, MED, 2.5 mg QD 5 days): 5.9 nM
- concentration at 5 days (enhancing tumor, Total everolimus, MED, 5 mg QD 5 days): 16.6 nM
- concentration at 5 days (enhancing tumor, Total everolimus, MED, 10 mg QD 5 days): 44 nM
- concentration at 5 days (enhancing tumor, Total everolimus, MED, 50 mg single dose): 54.5 nM
- concentration at 5 days (enhancing tumor, Total everolimus, MED, 60 mg single dose): 30.4 nM
- concentration at 5 days (enhancing tumor, Total everolimus, MED, 70 mg single dose): 71.8 nM
- concentration at 5 days (enhancing tumor, Total everolimus, MIN, 5 mg QD 5 days): 11.1 nM
- concentration at 5 days (enhancing tumor, Total everolimus, MIN, 50 mg single dose): 51.6 nM
- concentration at 5 days (enhancing tumor, Total everolimus, MIN, 60 mg single dose): 9.8 nM
- concentration at 5 days (enhancing tumor, Total everolimus, MIN, 70 mg single dose): 31.2 nM
- Kp at 120 h (non-enhancing tumor / plasma, 5 mg): 0.89
- Kp at 120 h (non-enhancing tumor / plasma, 10 mg): 0.1
- Kp at 120 h (non-enhancing tumor and plasma, 2.5 mg): 0.49
- Kp (non-enhancing tumor and plasma, 50 mg): 0.21
- Kp (non-enhancing tumor and plasma, 60 mg): 0.17
- Kp (non-enhancing tumor and plasma, 70 mg): 0.15
- concentration at 5 days (non-enhancing tumor, Total everolimus, MAX, 2.5 mg QD 5 days): 35.3 nM
- concentration at 5 days (non-enhancing tumor, Total everolimus, MAX, 5 mg QD 5 days): 20.2 nM
- concentration at 5 days (non-enhancing tumor, Total everolimus, MAX, 10 mg QD 5 days): 33.3 nM
- concentration at 5 days (non-enhancing tumor, Total everolimus, MAX, 50 mg single dose): 25.1 nM
- concentration at 5 days (non-enhancing tumor, Total everolimus, MAX, 60 mg single dose): 36.1 nM
- concentration at 5 days (non-enhancing tumor, Total everolimus, MAX, 70 mg single dose): 78.2 nM
- concentration at 5 days (non-enhancing tumor, Total everolimus, MED, 2.5 mg QD 5 days): 5.28 nM
- concentration at 5 days (non-enhancing tumor, Total everolimus, MED, 5 mg QD 5 days): 10.3 nM
- concentration at 5 days (non-enhancing tumor, Total everolimus, MED, 10 mg QD 5 days): 5 nM
- concentration at 5 days (non-enhancing tumor, Total everolimus, MED, 50 mg single dose): 15.7 nM
- concentration at 5 days (non-enhancing tumor, Total everolimus, MED, 60 mg single dose): 13.8 nM
- concentration at 5 days (non-enhancing tumor, Total everolimus, MED, 70 mg single dose): 8.2 nM
- concentration at 5 days (non-enhancing tumor, Total everolimus, MIN, 5 mg QD 5 days): 9.2 nM
- concentration at 5 days (non-enhancing tumor, Total everolimus, MIN, 10 mg QD 5 days): 4.5 nM
- concentration at 5 days (non-enhancing tumor, Total everolimus, MIN, 60 mg single dose): 11.3 nM
- concentration at 5 days (non-enhancing tumor, Total everolimus, MIN, 70 mg single dose): 6.8 nM
- concentration at 5 days (tumor tissue (enhancing and non-enhancing regions), unbound everolimus concentrations in enhancing and non-enhancing tumor regions (below the lower limit of quantitation), all dose levels): < 0.1 nM
